According to US10562864B2, “Chemical modulators of immune checkpoints and therapeutic use” (Duke University, priority 2015, dated 2020):
“Also recorded” adds a separate entry of the source.

Tests used:
[1] = test system: phospho-Erk1/2; assay: Western blot analysis of phospho-Erk1/2 levels in 4T1-PD1 cells; format: cell-based, murine; settings: 24 hours, FIG. 11, 12
Procedure: 4T1-PD1 cells (30K cells/per well) were seeded in 12-well plates overnight. On the following day, the compounds were added and the cells were incubated for 24 hours. The cells were then lysed in SDS sample buffer and analyzed by western blots.
4T1-PD1 cells (30K cells/per well) were seeded in 12-well plates overnight. On the following day, the compounds were added and the cells were incubated for 24 hours. The cells were then lysed in SDS sample buffer and analyzed by western blot.
4T1 Murine breast cancer cells stably expressing PD1 were seeded in 12-well plates (30 k cells/well) and incubated overnight. On the next day, compounds were added to produce the final concentration desired and the cells were incubated for […]. Cells were lysed with SDS sample buffer and lysates were subjected to western blot analysis

[2] = biological target: T1, CTLA4-GFP (Homo sapiens, UniProt P16410); assay: CTLA4-GFP internalization, confocal imaging of CTLA4-GFP stable U2OS cells; format: cell-based; parameters: key to Internalized CTLA4-GFP punctate; 6 hr (10 μM): **4+ Scale with + least and ++++ most; **4+ Scale with + least and ++++ most; **4+ Scale with + least and ++++ most; **4+ Scale with + least and ++++ most
T1 construct: expressed in transfected cells; host or cells: U2OS
T1 sequence (P16410 36-223): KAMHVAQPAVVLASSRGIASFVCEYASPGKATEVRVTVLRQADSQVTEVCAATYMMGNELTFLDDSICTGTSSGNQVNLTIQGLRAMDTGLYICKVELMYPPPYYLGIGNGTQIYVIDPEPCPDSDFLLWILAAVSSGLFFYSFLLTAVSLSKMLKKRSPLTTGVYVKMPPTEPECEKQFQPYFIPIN

[3] = test system: PD-1; assay: Western blot analysis of PD-1 protein level in 4T1 cells stably expressing PD-1; format: cell-based, murine; parameters: key to Decrease in PD1 protein level by western blot at 24 h at 5 μM: † 3+ Scale with + least and +++ most; † 3+ Scale with + least and +++ most; † 3+ Scale with + least and +++ most; key to Decrease in PD1 protein level by western blot at 4 days at 3 μM: ‡ 3+ Scale with + least and +++ most; ‡ 3+ Scale with + least and +++ most; ‡ 3+ Scale with + least and +++ most; settings: for Decrease in PD1 protein level by western blot at 24 h at 5 μM / Decrease in PD1 protein level by western blot at 4 days at 3 μM / PD-1 protein levels by western blot after 4 days: 4T1-PD1 cells; for PD-1 protein levels by western blot at 24 hours: 4T1 cells stably expressing PD-1, FIG. 9, 10, 12; for PD-1 protein levels by western blot after 4 days: FIG. 13
Procedure: Murine breast cancer cells were grown in DMEM medium supplemented with 10% FBS and penicillin and streptomycin antibiotics at 37° C. in 5% CO2.
4T1 Murine breast cancer cells stably expressing PD1 were seeded in 12-well plates (30 k cells/well) and incubated overnight. […] Cells were lysed with SDS sample buffer and lysates were subjected to western blot analysis
4T1-PD1 cells were seeded in 12-well plates (100 k cells/well) overnight. On the next day, compounds were added and the cells incubated for 4 days. The cells were then lysed in SDS sample buffer and lysates were subjected to western blot analysis

[4] = biological target: T2, PD1-GFP (Homo sapiens, UniProt Q15116); assay: Internalization assay (PD1-GFP), confocal imaging of PD1-GFP stable U2OS cells; format: cell-based; parameters: Internalized PD1-GFP punctate; 6 hr (10 μM): key to the marks not given beside the values; settings: 37° C.
T2 construct: expressed in transfected cells; host or cells: U2OS
T2 sequence (Q15116 25-288): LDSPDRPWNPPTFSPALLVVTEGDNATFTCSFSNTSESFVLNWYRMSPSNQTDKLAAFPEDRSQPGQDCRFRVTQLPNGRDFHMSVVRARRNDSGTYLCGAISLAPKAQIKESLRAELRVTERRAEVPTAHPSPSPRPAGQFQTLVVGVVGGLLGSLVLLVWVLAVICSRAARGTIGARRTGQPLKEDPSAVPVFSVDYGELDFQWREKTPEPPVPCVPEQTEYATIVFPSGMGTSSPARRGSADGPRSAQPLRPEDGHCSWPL
Procedure: U2OS cells were transfected with PD1-GFP and stable receptor-expressing cells were selected using 0.5 mg/ml Geneticin in the culture medium. […] The plates were incubated overnight at 37° C. in 5% CO2. The following day, chemical compounds (10 mM in DMSO) were diluted 1:200 in culture medium, 6.25 μL of which was then added to each well of cells to produce a 1:1000 dilution overall and final compound concentration of 10 μM per well. The cells were incubated with compound for 6 h at 37° C. prior to fixation in PBS containing 0.5% paraformaldehyde for 30 min at room temperature. The wells were then washed with PBS three times and stored at 4° C. The cells were imaged using a Zeiss LSM-510 confocal microscope.

[5] = biological target: T2, PD1-GFP; assay: as above; format: cell-based; settings: 0.25 μM to 10 μM, 6 h, see FIG. 6/7
[6] = biological target: T3, PDL1-GFP (Homo sapiens, UniProt Q9NZQ7); assay: Confocal imaging of PDL1-GFP stable U2OS cells; format: cell-based; settings: 10 μM, 6 h, 37° C., FIG. 2
T3 construct: expressed in transfected cells; host or cells: U2OS
T3 sequence (Q9NZQ7 19-290): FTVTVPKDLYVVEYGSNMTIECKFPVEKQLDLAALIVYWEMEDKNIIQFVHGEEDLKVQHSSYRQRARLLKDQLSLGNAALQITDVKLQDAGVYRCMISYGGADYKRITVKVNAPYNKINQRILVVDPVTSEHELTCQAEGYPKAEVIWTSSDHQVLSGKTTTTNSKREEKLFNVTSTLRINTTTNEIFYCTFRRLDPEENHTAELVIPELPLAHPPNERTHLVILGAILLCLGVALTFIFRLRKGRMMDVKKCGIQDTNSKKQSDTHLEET

Internalized PD1-GFP punctate; 6 hr (10 μM) [4]	SMILES	Decrease in PD1 protein level by western blot at 24 h at 5 μM [3]	PD-1 protein levels by western blot at 24 hours [3]	further results
+++	COc1ccc2cc1Oc1ccc(cc1)C[C@H]1c3cc(c(OC)cc3CCN1C)Oc1c(OC)c(OC)cc3c1[C@H](C2)N(C)CC3 [Compound 17]	–	–	Decrease in PD1 protein level by western blot at 4 days at 3 μM [3]: ++
+++	CCCCc1oc2ccccc2c1C(=O)c1cc(I)c(OCCN(CC)CC)c(I)c1 [Compound 13]	–	–	Decrease in PD1 protein level by western blot at 4 days at 3 μM [3]: ++
+++	CCN(CC)CCCC(C)Nc1c2ccc(Cl)cc2nc2ccc(OC)cc12 (centres unmarked) [Compound 16]	–	–	–
++	CC(=O)Oc1ccccc1C(=O)Nc1ncc([N+](=O)[O-])s1 [Compound 12, nitazoxanide]	+	lower PD-1 and phopho-Erk1/2 protein levels	phospho-Erk1/2 levels by western blot [1]: lower PD-1 and phopho-Erk1/2 protein levels
++	O=C(Nc1ncc([N+](=O)[O-])s1)c1ccccc1O [Compound 11]	–	–	–
++++	Cc1cc(/C=C/c2ccc3cc(N(C)C)ccc3[n+]2C)c(C)n1-c1ccccc1 [Compound 18]	–	–	Decrease in PD1 protein level by western blot at 4 days at 3 μM [3]: +++
++	CC(NCCC(c1ccccc1)c1ccccc1)c1ccccc1 (centres unmarked) [Compound 15]	–	–	–
+++	CCN(CC)CCCC(C)Nc1ccnc2cc(Cl)ccc12 (centres unmarked) [Compound 19]	–	–	–

The next lines start with the molecule.

SMILES	Internalized PD1-GFP punctate; 6 hr (10 μM) [4]	Decrease in PD1 protein level by western blot at 24 h at 5 μM [3]	PD-1 protein levels by western blot at 24 hours [3]	further results
O=C(Nc1ccc([N+](=O)[O-])cc1Cl)c1cc(Cl)ccc1O [Compound 10, niclosamide]	++++	+++	decreases PD-1 protein levels; also recorded: lower PD-1 protein levels	phospho-Erk1/2 levels by western blot [1]: lower phospho-Erk1/2 levels; CTLA4-GFP vesicles in confocal images ([2]; 10 μM, 6 h, 37° C., FIG. 3): aggregated CTLA4-GFP vesicles; Internalized CTLA4-GFP punctate; 6 hr (10 μM) ([2]; 6 hr): +++; PD-1 protein levels by western blot at 6 hours ([3]; 6 hrs, 4T1 cells stably expressing PD-1, FIG. 8): decreases PD-1 protein levels; PD1-GFP internalization in confocal images ([4]; 10 μM, 6 h, FIG. 1): internalized PD1-GFP vesicles; EC50 [5]: 3 µM; PDL1-GFP vesicles in confocal images [6]: aggregated PDL1-GFP vesicles
O=[N+]([O-])c1ccc2[nH]c(-c3cc(Cl)ccc3O)nc2c1 [Compound 2, 4-Chloro-2-(5-nitro-1H-benzo[d]imidazol-2-yl)phenol]	++++	++	lower PD-1 and phopho-Erk1/2 protein levels	phospho-Erk1/2 levels by western blot [1]: lower PD-1 and phopho-Erk1/2 protein levels; Decrease in PD1 protein level by western blot at 4 days at 3 μM [3]: +++; PD-1 protein levels by western blot after 4 days [3]: lower PD-1 protein levels
O=[N+]([O-])c1ccc(-c2nnc(-c3cc(Cl)ccc3O)[nH]2)cc1 [Compound 1, 4-Chloro-2-(5-(4-nitrophenyl)-4H-1,2,4-triazol-3-yl)phenol]	++++	–	–	–
CCCCc1oc2ccccc2c1C(=O)c1cc(I)c(OCCN(CC)CC)c(I)c1 [amiodarone]	–	–	–	PD-1 protein levels by western blot after 4 days [3]: lower PD-1 protein levels
O=C(Nc1ccc(C(F)(F)F)cc1)c1cc(Cl)cc2[nH]c(C(F)(F)F)nc12 [Compound 9, 6-Chloro-2-(trifluoromethyl)-N-(4-(trifluoromethyl)phenyl)-1H-benzo[d]imidazole-4-carboxamide]	++++	–	–	–
O=C(Nc1cc(Cl)cc(Cl)c1)c1cc(Cl)ccc1O [Compound 6, 5-chloro-N-(3,5-dichlorophenyl)-2-hydroxybenzamide]	++++	–	–	–
O=S(=O)(Nc1ccc(C(F)(F)F)cc1Cl)c1cc(Cl)ccc1O [Compound 4, 5-Chloro-N-(2-chloro-4-(trifluoromethyl)phenyl)-2-hydroxybenzenesulfonamide]	++	–	–	–
CCCCCCCC(=O)Oc1ccc(Cl)cc1C(=O)Nc1ccc([N+](=O)[O-])cc1Cl [Compound 7, 4-Chloro-2-((2-chloro-4-nitrophenyl)carbamoyl)phenyl octanoate]	++++	++	lower PD-1 protein levels	EC50 [5]: 3 µM
O=[N+]([O-])c1ccc2[nH]c(-c3cc(F)ccc3O)nc2c1 [Compound 3, 4-fluoro-2-(5-nitro-1H-benzo[d]imidazol-2-yl)phenol]	–	++	lower PD-1 and phopho-Erk1/2 protein levels	phospho-Erk1/2 levels by western blot [1]: lower PD-1 and phopho-Erk1/2 protein levels; Decrease in PD1 protein level by western blot at 4 days at 3 μM [3]: +++; PD-1 protein levels by western blot after 4 days [3]: lower PD-1 protein levels
CC[C@@H](C(=O)[C@@H](C)[C@@H](O)[C@H](C)CCc1ccc(C)c(O)c1C(=O)O)[C@H]1O[C@](CC)([C@H]2CC[C@](O)(CC)[C@H](C)O2)C[C@@H]1C [Compound 14, lasalocid]	++++	++	lower PD-1 protein levels	phospho-Erk1/2 levels by western blot [1]: lower phospho-Erk1/2 levels
Cc1ccc(S(=O)(=O)Nc2ccc(Br)cc2C(=O)Nc2ccc(C(F)(F)F)cc2)cc1 [Compound 8, 5-Bromo-2-((4-methylphenyl)sulfonamido)-N-(4-(trifluoromethyl)phenyl)benzamide]	++++	–	–	–
O=C(Nc1ccc(C(F)(F)F)cc1Cl)c1cc(Cl)ccc1O [Compound 5, 5-chloro-N-(2-chloro-4-(trifluoromethyl)phenyl)-2-hydroxybenzamide]	++++	–	–	–
